Earlier results on one compound are cited in patent publication US20220305127A1, “PYRROLOBENZODIAZEPINE ANTIBODY CONJUGATES” (priority 2017, published 2022).

The conditions of the data set: Phase I clinical evaluation.

Take `C=C1C[C@H]2C=Nc3cc(OCCCOc4cc5c(cc4OC)C(=O)N4CC(=C)C[C@H]4C=N5)c(OC)cc3C(=O)N2C1` [SJG-136]: the “DNA damage in circulating lymphocytes” value is “noted at all doses”; the adverse effects result was “vascular leak syndrome, peripheral edema, liver toxicity and fatigue”; the maximum tolerated dose was 45 μg/m^2.
